The data set can be described thus: Bupivacaine elution profile from coated stents of Example 4 in PBS flow chamber (HPLC). The conditions noted are these: coated stent of Example 4 (calcium phosphate base layer + PVA polymer layer), 10 ml PBS per day. The data set is classed as physicochemical. As for the experimental part:
An elution analysis was performed to assay release of bupivacaine over time from the coated stents of Example 4. An 18 mm long test specimen having a known surface area was cut from one of the coated stents of Example 4 and placed in a flow chamber. For 7 days, the test specimen was bathed with 10 ml per day of a phosphate buffered saline (PBS) solution. Every 24 hours, a 100 μl sample was taken of the 10 ml of PBS effluent collected over the preceding 24 hour period. The amount of bupivacaine in a 10 μl aliquot of the sample was quantified using a reverse-phase high pressure liquid chromatography (HPLC) system including a […] silica column. A solution of 30% acetonitrile and 70% buffered acid (985 ml of HPLC-grade water, 15 ml 1.0 M HCl, and 1.38 grams monobasic NaH2PO4) was employed as the mobile phase for the HPLC analysis. The data from the HPLC analysis was then normalized against the surface area of the test specimen and 10 ml volume of PBS effluent. Each data point represents the amount of bupivacaine eluted into the PBS solution during the proceeding 24-hour period, with each data point expressed in terms of in μg of bupivacaine released per cm^2 of coated stent surface. […]

Consider one molecule from patent US20060216327A1, “Multilayer coating for releasing biologically-active agents and method of making” (Bacterin, Inc., priority 2005, published 2006).

SMILES strings stand for the structures.

With `CCCCN1CCCCC1C(=O)Nc1c(C)cccc1C` (centres unmarked) [bupivacaine], the “release of bupivacaine from coated stent into PBS solution” value (days 1-3, attributed to the polymer layer) was “relative burst release” and the “release of bupivacaine from coated stent into PBS solution” value (days 4-7, attributed to erosion of the calcium phosphate base layer) is reported as “more gradual release”.
